Results as given in patent publication US20110166123A1, “NOVEL COMPOSITIONS AND METHODS OF USE” (priority 2008, published 2011).

Tested on: human immunodeficiency virus type 1 (HIV-1)
Assay: microbe, parasite or virus in culture
Format: cell-based
Settings: Human immunodeficiency virus 1, HeLa, 48 h, HIV-1 luciferase reporter, HeLa cells, 48 hours after infection

Row | SMILES | EC50 [nM]
1 | CC(C)(C)[C@@H](CO)n1cc(C(=O)O)c(=O)c2cc(NCc3ccc(F)cc3)c(Cl)cc21 [Example 26E, (S)-7-chloro-6-(4-fluorobenzylamino)-1-(1-hydroxy-3,3-dimethylbutan-2-yl)-4-oxo-1,4-dihydroquinoline-3-carboxylic acid] | > 100
2 | COc1cc2c(cc1NCc1c(F)cc(F)cc1F)c(=O)c(C(=O)O)cn2[C@H](CO)C(C)C [Example 21B, (S)-1-(1-hydroxy-3-methylbutan-2-yl)-7-methoxy-4-oxo-6-(2,4,6-trifluorobenzylamino)-1,4-dihydroquinoline-3-carboxylic acid] | < 10
3 | CC(C)[C@@H](CO)n1cc(C(=O)O)c(=O)c2cc(Cc3ccccc3F)cnc21 [Example 4B] | > 100
4 | Cc1cc2c(cc1NCc1ccc(F)cc1)c(=O)c(C(=O)O)cn2[C@H](CO)C(C)(C)C [Example 25C, (S)-6-(4-fluorobenzylamino)-1-(1-hydroxy-3,3-dimethylbutan-2-yl)-7-methyl-4-oxo-1,4-dihydroquinoline-3-carboxylic acid] | 10 to 100
5 | COc1nc2c(cc1N1CCc3cc(F)ccc3C1)c(=O)c(C(=O)O)cn2[C@H](CO)C(C)C [Example 17M] | > 100
6 | O=C(O)c1cn(C(CO)CO)c2cnc(Cc3cccc(Cl)c3F)cc2c1=O [Example 5L] | > 100
7 | COc1nc2c(cc1NCc1ccc(Cl)c(Cl)c1)c(=O)c(C(=O)O)cn2[C@H](CO)C(C)C [Example 20K, (S)-6-(3,4-dichlorobenzylamino)-1-(1-hydroxy-3-methylbutan-2-yl)-7-methoxy-4-oxo-1,4-dihydro-1,8-naphthyridine-3-carboxylic acid] | > 100
8 | COc1nc2c(cc1-c1ccccc1OCc1ccccc1)c(=O)c(C(=O)O)cn2[C@H](CO)C(C)C [Example 17K] | > 100
9 | CC(C)(C)[C@@H](CO)n1cc(C(=O)O)c(=O)c2cc(OCc3ccc(F)cc3F)ccc21 [Example 23B, (S)-6-(2,4-difluorobenzyloxy)-1-(1-hydroxy-3,3-dimethylbutan-2-yl)-4-oxo-1,4-dihydroquinoline-3-carboxylic acid] | > 100
10 | COc1nc2c(cc1N(C)Cc1ccc(F)cc1)c(=O)c(C(=O)O)cn2[C@H](CO)C(C)C [Example 20V, (S)-6-((4-fluorobenzyl)(methyl)amino)-1-(1-hydroxy-3-methylbutan-2-yl)-7-methoxy-4-oxo-1,4-dihydro-1,8-naphthyridine-3-carboxylic acid] | > 100
11 | COc1nc2c(cc1-c1ccc(F)cc1F)c(=O)c(C(=O)O)cn2[C@H](CO)C(C)C [Example 17E] | > 100
12 | COc1nc(Cc2cccc(Cl)c2F)cc2c(=O)c(C(=O)O)cn([C@H](CO)C(C)C)c12 [Example 5D, 6-(3-Chloro-2-fluoro-benzyl)-1-((S)-1-hydroxymethyl-2-methyl-propyl)-8-methoxy-4-oxo-1,4-dihydro-1,7-naphthyridine-3-carboxylic acid] | > 100
13 | COc1nc2c(cc1NCc1cccc(F)c1F)c(=O)c(C(=O)O)cn2[C@H](CO)C(C)C [Example 20BB, (S)-6-(2,3-difluorobenzylamino)-1-(1-hydroxy-3-methylbutan-2-yl)-7-methoxy-4-oxo-1,4-dihydro-1,8-naphthyridine-3-carboxylic acid] | > 100
14 | CN(C)c1nc2c(cc1Cc1cccc(Cl)c1F)c(=O)c(C(=O)O)cn2[C@H](CO)C(C)(C)C [Example 2P] | 10 to 100
15 | O=C(O)c1cn([C@H](CO)C2CCCCC2)c2cnc(Cc3cccc(Cl)c3F)cc2c1=O [Example 5M] | 10 to 100
16 | CC(C)(C)[C@@H](CO)n1cc(C(=O)O)c(=O)c2cc(OCc3c(F)cc(F)cc3F)ccc21 [Example 23C, (S)-1-(1-hydroxy-3,3-dimethylbutan-2-yl)-4-oxo-6-(2,4,6-trifluorobenzyloxy)-1,4-dihydroquinoline-3-carboxylic acid] | 10 to 100
17 | CC[C@@H](CO)n1cc(C(=O)O)c(=O)c2cc(Cc3cccc(Cl)c3F)c(OC)nc21 [Example 1I] | 10 to 100
18 | CC(C)(C)[C@@H](CO)n1cc(C(=O)O)c(=O)c2cc(Cc3cccc(Cl)c3F)c(CCCO)nc21 [Example 3C, 6-(3-Chloro-2-fluoro-benzyl)-1-((S)-1-hydroxymethyl-2,2-dimethyl-propyl)-7-(3-hydroxy-propyl)-4-oxo-1,4-dihydro-1,8-naphthyridine-3-carboxylic acid] | < 10
19 | COc1nc2c(cc1Cc1c(F)cc(F)cc1F)c(=O)c(C(=O)O)cn2[C@H](CO)C(C)C [Example 1D] | > 100
20 | COc1nc2c(cc1-c1cccc(OCc3ccccc3)c1)c(=O)c(C(=O)O)cn2[C@H](CO)C(C)C [Example 17L] | > 100
21 | COc1nc2c(cc1Cc1cccc(Cl)c1F)c(=O)c(C(=O)O)cn2C1CCOCC1 [Example 1N] | > 100
22 | COc1nc2c(cc1CNc1ccc(F)cc1F)c(=O)c(C(=O)O)cn2[C@H](CO)C(C)C [Example 12B] | > 100

Row | SMILES | EC50 [nM]
23 | CC(C)[C@@H](CO)n1cc(C(=O)O)c(=O)c2cc(NCc3c(F)cc(F)cc3F)ccc21 [Example 22C, (S)-1-(1-hydroxy-3-methylbutan-2-yl)-4-oxo-6-(2,4,6-trifluorobenzylamino)-1,4-dihydroquinoline-3-carboxylic acid] | 10 to 100
24 | COc1nc2c(cc1NCc1ccccc1C(F)(F)F)c(=O)c(C(=O)O)cn2[C@H](CO)C(C)C [Example 20W, (S)-1-(1-hydroxy-3-methylbutan-2-yl)-7-methoxy-4-oxo-6-(2-(trifluoromethyl)benzylamino)-1,4-dihydro-1,8-naphthyridine-3-carboxylic acid] | > 100
25 | COc1cc2c(cc1NCc1ccc(F)cc1F)c(=O)c(C(=O)O)cn2[C@H](CO)C(C)C [Example 21D, (S)-6-(2,4-difluorobenzylamino)-1-(1-hydroxy-3-methylbutan-2-yl)-7-methxoy-4-oxo-1,4-dihydroquinoline-carboxylic acid] | 10 to 100
26 | COc1nc2c(cc1CNc1cccc3c1CCCC3)c(=O)c(C(=O)O)cn2[C@H](CO)C(C)C [Example 12E] | > 100
27 | COc1cc2c(cc1OCc1cc(Cl)ccc1F)c(=O)c(C(=O)O)cn2[C@H](CO)C(C)(C)C [Example 29D, (S)-6-(5-chloro-2-fluorobenzyloxy)-1-(1-hydroxy-3,3-dimethylbutan-2-yl)-7-methoxy-4-oxo-1,4-dihydroquinoline-3-carboxylic acid] | > 100
28 | COc1nc2c(cc1Cc1cccc(Cl)c1F)c(=O)c(C(=O)O)cn2[C@H](CO)C1CCCCC1 [Example 1O] | < 10
29 | COc1nc2c(cc1NCc1cccc(F)c1)c(=O)c(C(=O)O)cn2[C@H](CO)C(C)C [Example 20E, (S)-6-(3-fluorobenzylamino)-1-(1-hydroxy-3-methylbutan-2-yl)-7-methoxy-4-oxo-1,4-dihydro-1,8-naphthyridine-3-carboxylic acid] | > 100
30 | COc1cc2c(cc1OCc1ccccc1C(F)(F)F)c(=O)c(C(=O)O)cn2[C@H](CO)C(C)(C)C [Example 29C, (S)-1-(1-hydroxy-3,3-dimethylbutan-2-yl)-7-methoxy-4-oxo-6-(2-(trifluoromethyl)benzyloxy)-1,4-dihydroquinoline-3-carboxylic acid] | > 100
31 | COc1nc2c(cc1NCc1ccc(Cl)cc1)c(=O)c(C(=O)O)cn2[C@H](CO)C(C)C [Example 20J, (S)-6-(4-chlorobenzylamino)-1-(1-hydroxy-3-methylbutan-2-yl)-7-methoxy-4-oxo-1,4-dihydro-1,8-naphthyridine-3-carboxylic acid] | > 100
32 | COc1nc2c(cc1Nc1cccc(Cl)c1F)c(=O)c(C(=O)O)cn2[C@H](CO)C(C)C [Example 20OO, (S)-6-(3-chloro-2-fluorophenylamino)-1-(1-hydroxy-3-methylbutan-2-yl)-7-methoxy-4-oxo-1,4-dihydro-1,8-naphthyridine-3-carboxylic acid] | > 100
33 | CC(C)(C)[C@@H](CO)n1cc(C(=O)O)c(=O)c2cc(Cc3cccc(Cl)c3F)c(OCCN3CCCC3)nc21 [Example 2O] | 10 to 100
34 | CCOc1nc2c(cc1Cc1cccc(Cl)c1F)c(=O)c(C(=O)O)cn2[C@H](CO)C(C)(C)C [Example 2C] | < 10
35 | CC[C@@H](CO)n1cc(C(=O)O)c(=O)c2cc(Cc3cccc(Cl)c3F)ncc21 [Example 5G] | > 100
36 | CC(C)[C@@H](CO)n1cc(C(=O)O)c(=O)c2cc(Cc3cccc(Cl)c3F)c(F)nc21 [Example 2KK] | 10 to 100
37 | COc1nc2c(cc1CNC1CCCc3ccccc31)c(=O)c(C(=O)O)cn2[C@H](CO)C(C)C (stereo partly shown) [Example 12F] | > 100
38 | CC(C)(C)[C@@H](CO)n1cc(C(=O)O)c(=O)c2cc(Cc3cccc(Cl)c3F)c(N3CCN(CCO)CC3)nc21 [Example 2Z] | 10 to 100
39 | COc1cc2c(cc1CNc1ccc(F)cc1)c(=O)c(C(=O)O)cn2[C@H](CO)C(C)C [Example 13A, (S)-6-((4-fluorophenylamino)methyl)-1-(1-hydroxy-3-methylbutan-2-yl)-7-methoxy-4-oxo-1,4-dihydroquinoline-3-carboxylic acid] | > 100
40 | COc1nc2c(cc1N[C@@H](C)c1ccc(F)cc1)c(=O)c(C(=O)O)cn2[C@H](CO)C(C)C [Example 20KK, 6-((S)-1-(4-fluorophenyl)ethylamino)-1-((S)-1-hydroxy-3-methylbutan-2-yl)-7-methoxy-4-oxo-1,4-dihydro-1,8-naphthyridine-3-carboxylic acid] | > 100
41 | COCCOc1cc2c(cc1NCc1ccc(F)cc1)c(=O)c(C(=O)O)cn2[C@H](CO)C(C)(C)C [Example 27C, (S)-6-(4-fluorobenzylamino)-1-(1-hydroxy-3,3-dimethylbutan-2-yl)-7-(2-methoxyethoxy)-4-oxo-1,4-dihydroquinoline-3-carboxylic acid] | 10 to 100
42 | COc1nc2c(cc1NCc1cccc(Cl)c1F)c(=O)c(C(=O)O)cn2[C@H](CO)C(C)C [Example 20B, (S)-6-(3-chloro-2-fluorobenzylamino)-1-(1-hydroxy-3-methylbutan-2-yl)-7-methoxy-4-oxo-1,4-dihydro-1,8-naphthyridine-3-carboxylic acid] | > 100
43 | CC(C)[C@@H](CO)n1cc(C(=O)O)c(=O)c2cc(Cc3ccccc3)cnc21 [Example 4C] | > 100
